The results in this text go back to patent US20260248762A1, “RRX-001 FOR […]-INFARCT ADVERSE V[…] COMPLICATIONS” (EpicentRx, Inc., priority 2022, published 2026).

Data set [1] relates to Male Wistar rats. As to the kind of experiment: Acute changes in heart rate during reperfusion, rat myocardial ischemia reperfusion. The data set is classed as in vivo. Particulars: infusion of RRx-001, i.v. in DMSO; in sham animals or relative to animals with I/R; FIG. 1. As to the method: (§1) Animal experiments were performed in accordance with protocols approved. Male Wistar rats or subjects (about 8-9 weeks old) were purchased from Charles River (San Diego, California) and allowed about 1 week to acclimatize to the new environment prior to random allocation into four groups (n=8 per group). The groups included: a first group 106 (sham), a second group 108 (RRx-001), a third group 110 (RRx-001 I/R), and a fourth group 112 (I/R).
The first group 106 included sham subjects (e.g., no treatment). The subjects of the second group 108 were given about 5 mg/kg of RRx-001 prepared in dimethyl sulfoxide (DMSO) and administered to the subjects via intravenous administration. The subjects of the second group 108 were not subjected to ischemia. […]
(§2) Regarding the myocardial ischemia reperfusion, the subjects were anesthetized with isoflurane (5% induction and 2% maintenance in 30% oxygen) and placed on a thermal heating pad. […] The knot was removed, the chest was closed, and the hearts of the subjects were monitored for a time period of one hour during reperfusion. […]
FIG. 1 depicts a graph comparing acute changes in heart rate (HR) during reperfusion for various groups of Example 1, according to at least some embodiments disclosed herein. FIG. 1 includes an x-axis 102 associated with time (measured in minutes) and a y-axis 104 associated with HR (measured in beats per minute or “bpm”).

Data set [2] has as its system Male Wistar rats. As to the kind of experiment: Hypotensive effects after RRx-001 treatment. The data set is classed as in vivo, rat. The following applies: treatment after reperfused MI. As to the method:
as §1
The first group 106 included sham subjects (e.g., no treatment). The subjects of the second group 108 were given about 5 mg/kg of RRx-001 prepared in dimethyl sulfoxide (DMSO) and administered to the subjects via intravenous administration. The subjects of the second group 108 were not subjected to ischemia. The subjects of the third group 110 were administered about 0.5 mg/kg of RRx-001 prepared in DMSO via intravenous administration during reperfusion after ischemia. The subjects of the fourth group 112 were untreated, but subjected to ischemia and reperfusion. […]
as §2

Regarding `O=C(CBr)N1CC([N+](=O)[O-])([N+](=O)[O-])C1` [RRx-001, 2-bromo-1-(3,3-dinitroazetidin-1-yl)ethan-1-one], the “acute changes in heart rate (HR) during reperfusion” value in the data set on Male Wistar rats [1] is “did not result in any acute changes in HR”. Besides, the hypotensive effects result in the data set on Male Wistar rats [2] is on record as “No hypotensive effects were observed”.
